Data set [1] has as its target Histamine H3 receptor (Cavia porcellus, UniProt Q9JI35). The data set can be described thus: Antagonist activity at histamine H3 receptor in guinea pig ileum assessed as inhibition of (R)-alpha-methylhistamine-induced response.
Data set [2] concerns the target T1, Histamine H3 receptor (Homo sapiens, UniProt Q9Y5N1). The experiment in a line: Displacement of [3H]NAMH from human full length histamine H3 receptor expressed in rat C6 cells. The class given is cell-based. (In general: Displacement assays read how much labelled ligand stays bound in the presence of the test substance.)
The target of data set [3] is T2, Histamine H3 receptor (Rattus norvegicus, UniProt Q9QYN8). The experiment in a line: Displacement of [3H]NAMH from histamine H3 receptor in rat cortex.
Data set [4] is described as follows: Oral bioavailability in rat. In kind it is ADME, organism-based. As to conditions: in vivo.
Data set [5] concerns the target T2, Histamine H3 receptor. The experiment in a line: Displacement of [3H]NAMH from rat full length histamine H3 receptor expressed in rat C6 cells. To be noted: read-out: Ki. The class given is cell-based.
Data set [6] addresses Histamine H3 receptor (Rattus norvegicus) (UniProt Q9QYN8). The data set can be described thus: Antagonist activity at rat full length histamine H3 receptor expressed in HEK cells assessed as inhibition of forskolin-induced cAMP accumulation by SPA. As to conditions: HEK293. (cAMP levels reflect the balance of adenylyl cyclase and phosphodiesterase activity.)
Data set [7] in a line: Displacement of [3H]LY278584 from 5HT3 receptor in rat frontal cortex. In kind it is tissue-based.
A short description of data set [8]: Displacement of [3H]LY278584 from 5HT2 receptor in rat frontal cortex. In kind it is tissue-based.
A short description of data set [9]: Displacement of [3H]LY278584 from 5HT1 receptor in rat frontal cortex. In kind it is tissue-based.
The target of data set [10] is T1, Histamine H3 receptor. The experiment in a line: Antagonist activity at human full length histamine H3 receptor expressed in HEK293 cells assessed as inhibition of (R)-alpha-methylhistamine-induced intracellular calcium release by FLIPR. In kind it is functional, cell-based. For orientation: A change in cytosolic calcium serves as a functional read-out for many receptors and channels.

The target in data set [11] is T1, Histamine H3 receptor. To be noted: HEK293.
In data set [12] the target is Histamine H3 receptor (Rattus norvegicus) (UniProt Q9QYN8). The data set can be described thus: Antagonist activity at rat full length histamine H3 receptor assessed as inhibition of (R)-alpha-methylhistamine-induced intracellular calcium release by FLIPR. In kind it is functional, cell-based.
For data set [13] the target is unchanged. The experiment in a line: Antagonist activity at rat full length histamine H3 receptor expressed in rat C6 cells assessed as inhibition of [35S]gammaGTP binding relative to control. The class given is cell-based.
Data set [14] deals with T1, Histamine H3 receptor. As to conditions: C6.
In data set [15] the target is Histamine H3 receptor (Cavia porcellus) (UniProt Q9JI35). To be noted: Ileum.

This is an account of results in ChEMBL document CHEMBL1157348, “The alkaloid conessine and analogues as potent histamine H3 receptor antagonists” (J Med Chem, 2008).

As a reminder, the IC50 is the concentration at which inhibition is half-maximal. What is called bioavailability is dose-corrected exposure relative to a reference, in per cent. The term pKb denotes the negative decadic logarithm of the Kb, by convention in mol/L. The term pKi denotes the negative decadic logarithm of the Ki, by convention in mol/L. The low end stands for a high Ki, the high end for a low Ki. A word on the Kb: it is the affinity of an antagonist, worked out from how it opposes an agonist.

T1 sequence (Q9Y5N1 whole entry): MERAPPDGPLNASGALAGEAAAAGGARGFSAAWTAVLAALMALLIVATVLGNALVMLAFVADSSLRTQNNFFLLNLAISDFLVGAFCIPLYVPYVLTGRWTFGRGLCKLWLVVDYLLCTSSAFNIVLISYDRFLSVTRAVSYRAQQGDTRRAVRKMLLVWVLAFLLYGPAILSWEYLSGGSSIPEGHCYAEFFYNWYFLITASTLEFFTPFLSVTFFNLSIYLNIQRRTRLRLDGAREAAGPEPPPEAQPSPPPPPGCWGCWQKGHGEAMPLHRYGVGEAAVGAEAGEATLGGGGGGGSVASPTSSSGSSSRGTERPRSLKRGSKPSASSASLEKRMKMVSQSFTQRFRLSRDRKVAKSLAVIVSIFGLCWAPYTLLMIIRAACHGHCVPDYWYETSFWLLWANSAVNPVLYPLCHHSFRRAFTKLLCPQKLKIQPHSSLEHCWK
Sequence of Histamine H3 receptor (Rattus norvegicus) (Q9QYN8 whole entry): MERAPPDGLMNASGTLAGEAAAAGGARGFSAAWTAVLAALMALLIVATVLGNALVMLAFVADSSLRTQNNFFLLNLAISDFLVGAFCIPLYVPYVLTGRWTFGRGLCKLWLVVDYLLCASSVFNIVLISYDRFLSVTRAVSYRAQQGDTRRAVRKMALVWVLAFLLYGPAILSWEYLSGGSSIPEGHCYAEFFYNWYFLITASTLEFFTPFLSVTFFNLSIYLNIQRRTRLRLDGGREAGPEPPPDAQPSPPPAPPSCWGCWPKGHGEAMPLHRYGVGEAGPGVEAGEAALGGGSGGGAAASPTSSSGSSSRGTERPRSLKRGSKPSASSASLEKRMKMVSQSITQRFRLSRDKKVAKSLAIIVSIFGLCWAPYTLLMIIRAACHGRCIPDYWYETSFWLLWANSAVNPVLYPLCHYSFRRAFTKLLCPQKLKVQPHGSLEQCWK
T2 sequence (Q9QYN8 whole entry): as above
Sequence of Histamine H3 receptor (Cavia porcellus, UniProt Q9JI35) (Q9JI35 whole entry): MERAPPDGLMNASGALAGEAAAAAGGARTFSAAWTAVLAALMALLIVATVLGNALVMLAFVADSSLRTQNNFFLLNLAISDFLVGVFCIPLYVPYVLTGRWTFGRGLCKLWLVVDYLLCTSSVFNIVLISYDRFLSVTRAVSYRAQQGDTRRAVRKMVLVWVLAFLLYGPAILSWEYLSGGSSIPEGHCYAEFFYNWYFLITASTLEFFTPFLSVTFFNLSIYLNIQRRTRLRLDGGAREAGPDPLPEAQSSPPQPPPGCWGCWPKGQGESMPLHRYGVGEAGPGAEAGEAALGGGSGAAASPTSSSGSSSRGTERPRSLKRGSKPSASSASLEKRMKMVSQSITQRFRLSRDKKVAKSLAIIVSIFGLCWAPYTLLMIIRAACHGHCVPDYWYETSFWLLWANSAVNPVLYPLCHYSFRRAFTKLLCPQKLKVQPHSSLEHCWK
Sequence of Histamine H3 receptor (Cavia porcellus) (Q9JI35 whole entry): as above

In the case of `CN(C)CCCOc1c(Br)cc(CCN(C)C)cc1Br` [APLYSAMINE], the half-inhibitory concentration (IC50) at Histamine H3 receptor [1] stood at 500 nM.

`C[C@H]1[C@H]2CC[C@H]3[C@@H]4CC=C5C[C@@H](N(C)C(=O)c6ccc(C#N)cc6)CC[C@]5(C)[C@H]4CC[C@]23CN1C`: the results for the Ki on Histamine H3 receptor [2] and on Histamine H3 receptor [3] (read-out: Ki) were 39.8 nM and 195 nM, respectively.

Take `CCS(=O)(=O)N(C)[C@H]1CC[C@@]2(C)C(=CC[C@H]3[C@@H]4CC[C@@H]5[C@H](C)N(C)C[C@@]54CC[C@@H]32)C1`: the Ki on Histamine H3 receptor [2] came out at 23.4 nM; on Histamine H3 receptor [3] (read-out: Ki), 141 nM.

Consider `CC(=O)N(C)[C@H]1CC[C@@]2(C)C(=CC[C@H]3[C@@H]4CC[C@@H]5[C@H](C)N(C)C[C@@]54CC[C@@H]32)C1`, for which the Ki is 110 nM on Histamine H3 receptor [2] and 257 nM on Histamine H3 receptor [3] (read-out: Ki).

Consider `C[C@H]1[C@H]2CC[C@H]3[C@@H]4CC=C5C[C@@H](N(C)S(=O)(=O)c6ccc(C#N)cc6)CC[C@]5(C)[C@H]4CC[C@]23CN1C`, for which the Ki came out at 19 nM on Histamine H3 receptor [2] and 138 nM on Histamine H3 receptor [3] (read-out: Ki).

On to `C[C@H]1[C@H]2CC[C@H]3[C@@H]4CC=C5C[C@@H](N(C)C(=O)Cc6cccs6)CC[C@]5(C)[C@H]4CC[C@]23CN1C`, for which the Ki at Histamine H3 receptor [2] was 3.31 nM; at Histamine H3 receptor [3] (read-out: Ki), 11.2 nM. The bioavailability in [4] was 4.5%.

With `CC(=O)N[C@@H](CC(C)C)C(=O)N(C)[C@H]1CC[C@@]2(C)C(=CC[C@H]3[C@@H]4CC[C@@H]5[C@H](C)N(C)C[C@@]54CC[C@@H]32)C1`, the Ki at Histamine H3 receptor [2] was 1.62 nM; at Histamine H3 receptor [3] (read-out: Ki), 6.76 nM.

For the compound `CC[C@@H](C)[C@@H](N)C(=O)N(C)[C@H]1CC[C@@]2(C)C(=CC[C@H]3[C@@H]4CC[C@@H]5[C@H](C)N(C)C[C@@]54CC[C@@H]32)C1`, the Ki on Histamine H3 receptor [2] is 0.37 nM; on Histamine H3 receptor [3] (read-out: Ki), 2.88 nM.

As to `COc1ccc(C/C(=N\O)C(=O)NCCc2c[nH]cn2)cc1Br` [VERONGAMINE], the IC50 at Histamine H3 receptor [1] is 830 nM.

As to `NCCC(=O)NCCc1c[nH]cn1` [CARCININE], the Ki on Histamine H3 receptor [5] stood at 294 nM.

`O=C(c1ccc(OCCCc2cnc[nH]2)cc1)C1CC1` [CIPROXIFAN]: the Ki on Histamine H3 receptor [3] (read-out: pKi (converted)) is 0.631 nM.

In the case of `CC(=O)N[C@@H](Cc1ccccc1)C(=O)N(C)[C@H]1CC[C@@]2(C)C(=CC[C@H]3[C@@H]4CC[C@@H]5[C@H](C)N(C)C[C@@]54CC[C@@H]32)C1`, the Ki turned out to be 1.15 nM on Histamine H3 receptor [2] and 2.29 nM at Histamine H3 receptor [3] (read-out: Ki).

In the case of `COC(=O)N(C)[C@H]1CC[C@@]2(C)C(=CC[C@H]3[C@@H]4CC[C@@H]5[C@H](C)N(C)C[C@@]54CC[C@@H]32)C1`, the Ki was determined as 60.3 nM at Histamine H3 receptor [2] and 257 nM on Histamine H3 receptor [3] (read-out: Ki).

Turning to `S=C(NC1CCCCC1)N1CCC(c2cnc[nH]2)CC1` [THIOPERAMIDE], the negative logarithm of the Kb (pKb) in data set [6] was 7.61; at Histamine H3 receptor [10] it was 6.82; on Histamine H3 receptor [11], 7.39; in data set [12], 9.11; in data set [13], 8.13; at Histamine H3 receptor [14], 6.1. The Ki at Histamine H3 receptor [3] (read-out: pKi (converted)) was 7.08 nM. Moreover, the pKi in data set [7] stood at 5.64; in data set [8], 5.25; in data set [9], 4.95. At Histamine H3 receptor [1], the antagonist dissociation constant (Kb) is 3.63 nM.

With `C[C@H]1[C@H]2CC[C@H]3[C@@H]4CC=C5C[C@@H](N(C)S(=O)(=O)c6ccccc6)CC[C@]5(C)[C@H]4CC[C@]23CN1C`, the Ki at Histamine H3 receptor [2] amounted to 7.76 nM; on Histamine H3 receptor [3] (read-out: Ki), 61.7 nM.

Take `C[C@H]1[C@H]2CC[C@H]3[C@@H]4CC=C5C[C@@H](N(C)C(=O)c6ccncc6)CC[C@]5(C)[C@H]4CC[C@]23CN1C`: the Ki at Histamine H3 receptor [2] stood at 16.2 nM; on Histamine H3 receptor [3] (read-out: Ki), 155 nM.

`C[C@H]1[C@H]2CC[C@H]3[C@@H]4CC=C5C[C@@H](N(C)c6ccc(C#N)cc6)CC[C@]5(C)[C@H]4CC[C@]23CN1C`: the Ki is 1.66 nM at Histamine H3 receptor [2] and 24 nM on Histamine H3 receptor [3] (read-out: Ki).

As for `C[C@H]1[C@H]2CC[C@H]3[C@@H]4CC=C5C[C@@H](N(C)C(=O)OCC(Cl)(Cl)Cl)CC[C@]5(C)[C@H]4CC[C@]23CN1C`, the Ki worked out at 19.7 nM at Histamine H3 receptor [2] and 7.91 nM on Histamine H3 receptor [5].

Regarding `C[C@H]1[C@H]2CC[C@H]3[C@@H]4CC=C5C[C@@H](N(C)C(=O)N(C)C)CC[C@]5(C)[C@H]4CC[C@]23CN1C`, the Ki at Histamine H3 receptor [2] amounted to 50.1 nM; at Histamine H3 receptor [3] (read-out: Ki) it was 295 nM.

On to `C[C@H]1[C@H]2CC[C@H]3[C@@H]4CC=C5C[C@@H](N(C)C(=O)C6CC6)CC[C@]5(C)[C@H]4CC[C@]23CN1C`, for which the Ki on Histamine H3 receptor [2] was 60.3 nM; on Histamine H3 receptor [3] (read-out: Ki), 380 nM.

In the case of `CN1C[C@]23CC[C@H]4[C@@H](CC=C5C[C@@H](N(C)C)CC[C@@]54C)[C@@H]2CC[C@@H]3C1=O`, the results for the Ki at Histamine H3 receptor [2] and at Histamine H3 receptor [5] were 543 nM and 1000 nM, respectively.

As for `CC[C@H](C)[C@H](N)C(=O)N(C)[C@H]1CC[C@@]2(C)C(=CC[C@H]3[C@@H]4CC[C@@H]5[C@H](C)N(C)C[C@@]54CC[C@@H]32)C1`, the values for the Ki at Histamine H3 receptor [2] and on Histamine H3 receptor [3] (read-out: Ki) were 0.22 nM and 0.49 nM, respectively.

Regarding `C[C@H]1[C@H]2CC[C@H]3[C@@H]4CC=C5C[C@@H](N(C)C(=O)c6ccccc6)CC[C@]5(C)[C@H]4CC[C@]23CN1C`, the Ki on Histamine H3 receptor [2] is 12.3 nM; at Histamine H3 receptor [3] (read-out: Ki), 38 nM.

Take `C[C@H]1[C@H]2CC[C@H]3[C@@H]4CC=C5C[C@@H](N(C)S(=O)(=O)N(C)C)CC[C@]5(C)[C@H]4CC[C@]23CN1C`: the Ki was determined as 30.9 nM on Histamine H3 receptor [2] and 240 nM on Histamine H3 receptor [3] (read-out: Ki).

Turning to `O=C(c1ccc(OCCCc2c[nH]cn2)cc1)C1CC1` [CIPROXIFAN], the negative-log Kb (pKb) in data set [6] came to 9.2; on Histamine H3 receptor [10], 6.84; at Histamine H3 receptor [11], 7.07; in data set [12], 9.42; in data set [13], 8.78; on Histamine H3 receptor [14] it was 6.59. Further, in data set [15], the negative-log Kb (pKb) was 8.12. Moreover, the negative-log Ki (pKi) in [7] is given as 6.52; in data set [8], 4.73; in data set [9], 4.78.
